# Experimental data: patent US3937820A, “Insulin composition providing alternatives to immunological resistance” (Hoechst Aktiengesellschaft, priority 1972, dated 1976)
# Experiment: activity of the starting insulins in I.U./mg
# Details: starting insulin; crystallized insulin calculated on dry substance
substance,measurement,value
crystallized insulin: pure crystallized complete insulin used as starting material,activity,≥ 25 I.U./mg
des-phenyl-alanine^B1 insulin [des-Phe^B1 insulin],activity,25 I.U./mg
